The numbers were not newly measured in US8657798B2, “Anti-inflammatory analgesic adhesive patch for external use” (Teikoku Seiyaku Co., Ltd., priority 2010, dated 2014), which cites them from elsewhere.

The conditions of the series: compared with diclofenac sodium.

On to Diclofenac hydroxyethylpyrrolidine, for which the water solubility result is reported as “better water solubility than diclofenac sodium”.
